{"source": "patent US9149475B2", "about": "“Protein kinase C inhibitors and uses thereof” (Rigel Pharmaceuticals, Inc., priority 2009, dated 2015)", "data": [{"tested_on": "Human primary T cells", "assay": "IL-2 ELISA, human primary T cell, anti-CD3+CD28+ (whole cell assay)", "type": "cell-based", "details": "Homo sapiens, T-cell, 24 h, human primary T cells stimulated with anti-CD3 + anti-CD28, 24 hours", "procedure,_shortened": "(§1)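 PBMC-derived T cells, pre-expanded on αCD3/αCD28 with IL-2 and then washed free of IL-2, were preincubated with compound for 1 hr at 37° C (100,000 cells/well). They were then stimulated on 1 μg/ml αCD3 plus 5 μg/ml αCD28 for 24 h, and supernatant IL-2 was measured by ELISA. The counter-assay used 0.5 ng/ml PMA plus 0.1 μM ionomycin instead.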", "units": {"IC50": "nM"}, "values": [{"smiles": "CCOc1ncc(Nc2ncc(F)c(NC3CC(C)(C)N(C)C(C)(C)C3)n2)cc1OC(F)F", "note": "[Compound I-117, N2-(5-(difluoromethoxy)-6-ethoxypyridin-3-yl)-5-fluoro-N4-(1,2,2,6,6-pentamethylpiperidin-4-yl)pyrimidine-2,4-diamine]", "IC50": "250 to 500"}, {"smiles": "CCOc1ncc(Nc2ncc(F)c(NC3CC(C)(C)NC(C)(C)C3)n2)cc1OC(F)F", "note": "[Compound I-118, N2-(5-(difluoromethoxy)-6-ethoxypyridin-3-yl)-5-fluoro-N4-(2,2,6,6-tetramethylpiperidin-4-yl)pyrimidine-2,4-diamine]", "IC50": "250 to 500"}, {"smiles": "CN1C(C)(C)CC(Nc2nc(Nc3ccc(OCCN4CCOCC4)c(C(F)(F)F)c3)ncc2F)CC1(C)C", "note": "[Compound I-119, N2-(4-(2-morpholinoethoxy)-3-(trifluoromethyl)phenyl)-5-fluoro-N4-(1,2,2,6,6-pentamethylpiperidin-4-yl)pyrimidine-2,4-diamine]", "IC50": "250 to 500"}, {"smiles": "CC1(C)CC(Nc2nc(Nc3ccc(OCCN4CCOCC4)c(OC(F)F)c3)ncc2F)CC(C)(C)N1", "note": "[Compound I-120, N2-(4-(2-morpholinoethoxy)-3-(difluoromethoxy)phenyl)-5-fluoro-N4-(2,2,6,6-tetramethylpiperidin-4-yl)pyrimidine-2,4-diamine]", "IC50": "> 1000"}, {"smiles": "CN1C(C)(C)CC(Nc2nc(Nc3ccc(OCCN4CCOCC4)c(OC(F)F)c3)ncc2F)CC1(C)C", "note": "[Compound I-121, N2-(4-(2-morpholinoethoxy)-3-(difluoromethoxy)phenyl)-5-fluoro-N4-(1,2,2,6,6-pentamethylpiperidin-4-yl)pyrimidine-2,4-diamine]", "IC50": "500 to 1000"}, {"smiles": "CC1(C)CC(Nc2nc(Nc3ccc(OC(C)(C)CN4CCOCC4)c(OC(F)F)c3)ncc2F)CC(C)(C)N1", "note": "[Compound I-122, N2-(4-(2-methyl-1-morpholinopropan-2-yloxy)-3-(difluoromethoxy)phenyl)-5-fluoro-N4-(2,2,6,6-tetramethylpiperidin-4-yl)pyrimidine-2,4-diamine]", "IC50": "> 1000"}, {"smiles": "CN1C(C)(C)CC(Nc2nc(Nc3ccc(OC(C)(C)CN4CCOCC4)c(OC(F)F)c3)ncc2F)CC1(C)C", "note": "[Compound I-123, N2-(4-(2-methyl-1-morpholinopropan-2-yloxy)-3-(difluoromethoxy)phenyl)-5-fluoro-N4-(1,2,2,6,6-pentamethylpiperidin-4-yl)pyrimidine-2,4-diamine]", "IC50": "< 250"}, {"smiles": "CC1(C)CC(Nc2nc(Nc3ccc(OC(C)(C)CN4CCCC4)c(OC(F)F)c3)ncc2F)CC(C)(C)N1", "note": "[Compound I-124, N2-(4-(2-methyl-1-(pyrrolidin-1-yl)propan-2-yloxy)-3-(difluoromethoxy)phenyl)-5-fluoro-N4-(2,2,6,6-tetramethylpiperidin-4-yl)pyrimidine-2,4-diamine]", "IC50": "500 to 1000"}, {"smiles": "CC(C)Oc1ncc(Nc2ncc(F)c(NC3CC(C)(C)N(C)C(C)(C)C3)n2)cc1-c1nnnn1C", "note": "[Compound I-126, 5-fluoro-N2-(6-isopropoxy-5-(1-methyl-1H-tetrazol-5-yl)pyridin-3-yl)-N4-(1,2,2,6,6-pentamethylpiperidin-4-yl)pyrimidine-2,4-diamine]", "IC50": "< 250"}, {"smiles": "CC(C)Oc1ncc(Nc2ncc(F)c(NC3CC(C)(C)NC(C)(C)C3)n2)cc1-c1nnnn1C", "note": "[Compound I-127, 5-fluoro-N2-(6-isopropoxy-5-(1-methyl-1H-tetrazol-5-yl)pyridin-3-yl)-N4-(2,2,6,6-tetramethylpiperidin-4-yl)pyrimidine-2,4-diamine]", "IC50": "250 to 500"}, {"smiles": "CC(C)Oc1ncc(Nc2ncc(C(N)=O)c(NC3CC(C)(C)N(C)C(C)(C)C3)n2)cc1-c1nnnn1C", "note": "[Compound I-128, 2-(6-isopropoxy-5-(1-methyl-1H-tetrazol-5-yl)pyridin-3-ylamino)-4-(1,2,2,6,6-pentamethylpiperidin-4-ylamino)pyrimidine-5-carboxamide]", "IC50": "> 1000"}, {"smiles": "CC(C)Oc1ncc(Nc2ncc(C#N)c(NC3CC(C)(C)N(C)C(C)(C)C3)n2)cc1-c1nnnn1C", "note": "[Compound I-129, 2-(6-isopropoxy-5-(1-methyl-1H-tetrazol-5-yl)pyridin-3-ylamino)-4-(1,2,2,6,6-pentamethylpiperidin-4-ylamino)pyrimidine-5-carbonitrile]", "IC50": "500 to 1000"}, {"smiles": "CC(C)Oc1ncc(Nc2ncc(C#N)c(NC3CC(C)(C)NC(C)(C)C3)n2)cc1-c1nnnn1C", "note": "[Compound I-130, 2-(6-isopropoxy-5-(1-methyl-1H-tetrazol-5-yl)pyridin-3-ylamino)-4-(2,2,6,6-tetramethylpiperidin-4-ylamino)pyrimidine-5-carbonitrile]", "IC50": "> 1000"}, {"smiles": "CC(C)Oc1ncc(Nc2ncc(F)c(NC3CC(C)(C)N(C)C(C)(C)C3)n2)cc1-c1nnnn1C(C)C", "note": "[Compound I-131, 5-fluoro-N2-(6-isopropoxy-5-(1-isopropyl-1H-tetrazol-5-yl)pyridin-3-yl)-N4-(1,2,2,6,6-pentamethylpiperidin-4-yl)pyrimidine-2,4-diamine]", "IC50": "500 to 1000"}, {"smiles": "CC(C)Oc1ncc(Nc2ncc(F)c(NC3CC(C)(C)NC(C)(C)C3)n2)cc1-c1nnnn1C(C)C", "note": "[Compound I-132, 5-fluoro-N2-(6-isopropoxy-5-(1-isopropyl-1H-tetrazol-5-yl)pyridin-3-yl)-N4-(2,2,6,6-tetramethylpiperidin-4-yl)pyrimidine-2,4-diamine]", "IC50": "500 to 1000"}, {"smiles": "CC(C)Oc1ncc(Nc2ncc(C(N)=O)c(NC3CC(C)(C)N(C)C(C)(C)C3)n2)cc1-c1nnnn1C(C)C", "note": "[Compound I-133, 2-(6-isopropoxy-5-(1-isopropyl-1H-tetrazol-5-yl)pyridin-3-ylamino)-4-(1,2,2,6,6-pentamethylpiperidin-4-ylamino)pyrimidine-5-carboxamide]", "IC50": "500 to 1000"}, {"smiles": "CC(C)Oc1ncc(Nc2ncc(C(N)=O)c(NC3CC(C)(C)NC(C)(C)C3)n2)cc1-c1nnnn1C(C)C", "note": "[Compound I-134, 2-(6-isopropoxy-5-(1-isopropyl-1H-tetrazol-5-yl)pyridin-3-ylamino)-4-(2,2,6,6-tetramethylpiperidin-4-ylamino)pyrimidine-5-carboxamide]", "IC50": "> 1000"}, {"smiles": "CC(C)Oc1ncc(Nc2ncc(C#N)c(NC3CC(C)(C)N(C)C(C)(C)C3)n2)cc1-c1nnnn1C(C)C", "note": "[Compound I-135, 2-(6-isopropoxy-5-(1-isopropyl-1H-tetrazol-5-yl)pyridin-3-ylamino)-4-(1,2,2,6,6-pentamethylpiperidin-4-ylamino)pyrimidine-5-carbonitrile]", "IC50": "500 to 1000"}, {"smiles": "CC(C)Oc1ncc(Nc2ncc(C#N)c(NC3CC(C)(C)NC(C)(C)C3)n2)cc1-c1nnnn1C(C)C", "note": "[Compound I-136, 2-(6-isopropoxy-5-(1-isopropyl-1H-tetrazol-5-yl)pyridin-3-ylamino)-4-(2,2,6,6-tetramethylpiperidin-4-ylamino)pyrimidine-5-carbonitrile]", "IC50": "> 1000"}, {"smiles": "CC(C)Oc1ncc(Nc2ncc(F)c(NC3CC(C)(C)N(C)C(C)(C)C3)n2)cc1-c1nnnn1C1CC1", "note": "[Compound I-137, N2-(5-(1-cyclopropyl-1H-tetrazol-5-yl)-6-isopropoxypyridin-3-yl)-5-fluoro-N4-(1,2,2,6,6-pentamethylpiperidin-4-yl)pyrimidine-2,4-diamine]", "IC50": "< 250"}, {"smiles": "CC(C)Oc1ncc(Nc2ncc(F)c(NC3CC(C)(C)NC(C)(C)C3)n2)cc1-c1nnnn1C1CC1", "note": "[Compound I-138, N2-(5-(1-cyclopropyl-1H-tetrazol-5-yl)-6-isopropoxypyridin-3-yl)-5-fluoro-N4-(2,2,6,6-tetramethylpiperidin-4-yl)pyrimidine-2,4-diamine]", "IC50": "500 to 1000"}, {"smiles": "CC(C)Oc1ncc(Nc2ncc(C#N)c(NC3CC(C)(C)N(C)C(C)(C)C3)n2)cc1-c1nnnn1C1CC1", "note": "[Compound I-139, 2-(5-(1-cyclopropyl-1H-tetrazol-5-yl)-6-isopropoxypyridin-3-ylamino)-4-(1,2,2,6,6-pentamethylpiperidin-4-ylamino)pyrimidine-5-carbonitrile]", "IC50": "< 250"}, {"smiles": "CC(C)Oc1ncc(Nc2ncc(C#N)c(NC3CC(C)(C)NC(C)(C)C3)n2)cc1-c1nnnn1C1CC1", "note": "[Compound I-140, 2-(5-(1-cyclopropyl-1H-tetrazol-5-yl)-6-isopropoxypyridin-3-ylamino)-4-(2,2,6,6-tetramethylpiperidin-4-ylamino)pyrimidine-5-carbonitrile]", "IC50": "250 to 500"}, {"smiles": "CC1(C)CC(Nc2nc(Nc3cnc(OCCN4CCCC4=O)c(OC(F)F)c3)ncc2F)CC(C)(C)N1", "note": "[Compound I-141, 1-(2-(3-(difluoromethoxy)-5-(5-fluoro-4-(2,2,6,6-tetramethylpiperidin-4-ylamino)pyrimidin-2-ylamino)pyridin-2-yloxy)ethyl)pyrrolidin-2-one]", "IC50": "> 1000"}, {"smiles": "CN1C(C)(C)CC(Nc2nc(Nc3cnc(OCCN4CCCC4)c(OC(F)F)c3)ncc2F)CC1(C)C", "note": "[Compound I-142, N2-(5-(difluoromethoxy)-6-(2-(pyrrolidin-1-yl)ethoxy)pyridin-3-yl)-5-fluoro-N4-(1,2,2,6,6-pentamethylpiperidin-4-yl)pyrimidine-2,4-diamine]", "IC50": "> 1000"}, {"smiles": "CC1(C)CC(Nc2nc(Nc3cnc(OCCN4CCCC4)c(OC(F)F)c3)ncc2F)CC(C)(C)N1", "note": "[Compound I-143, N2-(5-(difluoromethoxy)-6-(2-(pyrrolidin-1-yl)ethoxy)pyridin-3-yl)-5-fluoro-N4-(2,2,6,6-tetramethylpiperidin-4-yl)pyrimidine-2,4-diamine]", "IC50": "> 1000"}, {"smiles": "CC1(C)CC(Nc2nc(Nc3ccc(OC4CCN(CC(F)(F)F)CC4)c(OC(F)F)c3)ncc2F)CC(C)(C)N1", "note": "[Compound I-144, N2-(4-(1-(2,2,2-trifluoroethyl)piperidin-4-yloxy)-3-(difluoromethoxy)phenyl)-5-fluoro-N4-(2,2,6,6-tetramethylpiperidin-4-yl)pyrimidine-2,4-diamine]", "IC50": "500 to 1000"}]}, {"tested_on": "Human primary T cells", "assay": "IL-2 ELISA, human primary T cell, anti-CD3+CD28+ (whole cell assay)", "type": "cell-based", "details": "human primary T cells stimulated with anti-CD3 + anti-CD28, 24 hours", "procedure,_shortened": "as §1", "units": {"IC50": "nM"}, "values": [{"smiles": "CC1(C)CC(Nc2nc(Nc3ccc(F)c(-n4cnnn4)c3)ncc2C(N)=O)CC(C)(C)N1", "note": "[Compound I-125, 5-aminocarbonyl-N2-[4-fluoro-3-(1H-tetrazol-1-yl)]phenyl-N4-(2,2,6,6-tetramethylpiperidin-4-yl)-2,4-pyrimidinediamine]", "IC50": "250 to 500"}]}]}
